# “And” between values parts separate entries of the source, which are not always exact repeats. Equal values may be shown once. “Also recorded” adds a separate entry of the source. Read-outs that look alike come from different tables or passages of the source.
# Experiments:
# [1] = biological target: T1, mu-opioid receptor (OPRM1) (Homo sapiens, UniProt P35372); experiment: β-arrestin recruitment assay (PathHunter) in U2OS-OPRM1 cells; conditions: for Description (PAM efficacy class / SAM): U2OS-OPRM1, β-arrestin PAM and SAM detection modes; for β-arrestin recruitment, agonist detection mode (compound alone): U2OS-OPRM1 cells, no orthosteric agonist
# T1 sequence (P35372 whole entry): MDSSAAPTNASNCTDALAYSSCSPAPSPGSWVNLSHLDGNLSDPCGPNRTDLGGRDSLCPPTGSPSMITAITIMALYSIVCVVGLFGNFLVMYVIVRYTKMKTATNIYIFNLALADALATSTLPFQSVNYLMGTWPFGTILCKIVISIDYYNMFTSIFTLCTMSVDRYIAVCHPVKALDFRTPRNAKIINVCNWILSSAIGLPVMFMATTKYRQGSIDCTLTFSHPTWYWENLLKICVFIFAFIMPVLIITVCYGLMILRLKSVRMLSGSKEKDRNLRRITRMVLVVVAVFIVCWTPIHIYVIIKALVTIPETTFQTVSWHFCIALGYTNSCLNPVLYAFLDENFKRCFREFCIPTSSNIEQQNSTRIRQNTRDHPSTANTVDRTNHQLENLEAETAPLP
# [2] = biological target: T1, mu-opioid receptor (OPRM1); experiment: cell-based
# [3] = biological target: T2, human mu opioid receptors (Homo sapiens, UniProt P35372); experiment: Inhibition of forskolin-stimulated cAMP accumulation in CHO-mu cells; conditions: for EC50: mean (95% CI)
# T2 sequence (P35372 whole entry): as above
# [4] = biological target: T3, mu-opioid receptor (C6mu membranes) (Rattus norvegicus, UniProt P33535); experiment: [35S]GTPγS binding in C6mu cell membranes; format: biochemical; conditions: for agonist activity of modulator in [35S]GTPγS binding: modulator alone
# T3 construct: expressed in transfected cells; host or cells: C6 glioma cells (membranes)
# T3 sequence (P33535 whole entry): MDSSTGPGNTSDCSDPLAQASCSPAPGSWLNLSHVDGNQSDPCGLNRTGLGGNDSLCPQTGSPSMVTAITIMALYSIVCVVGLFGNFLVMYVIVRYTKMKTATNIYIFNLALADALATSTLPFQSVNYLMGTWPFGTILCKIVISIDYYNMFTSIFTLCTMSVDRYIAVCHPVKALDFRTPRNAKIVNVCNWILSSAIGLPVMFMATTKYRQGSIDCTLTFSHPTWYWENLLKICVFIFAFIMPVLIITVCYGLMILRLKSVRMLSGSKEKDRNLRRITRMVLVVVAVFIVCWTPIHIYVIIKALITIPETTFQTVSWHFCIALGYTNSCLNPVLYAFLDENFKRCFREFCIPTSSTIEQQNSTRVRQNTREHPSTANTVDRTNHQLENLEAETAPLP
# [5] = biological target: T1, mu-opioid receptor (OPRM1)
# [6] = biological target: T4, delta opioid receptor (OPRD1) (Homo sapiens, UniProt P41143); experiment: β-arrestin recruitment assay (PathHunter) in U2OS-OPRD1 cells; format: cell-based; conditions: for β-arrestin recruitment, agonist detection mode: U2OS-OPRD1, no leu-enkephalin; for β-arrestin recruitment, PAM detection mode: U2OS-OPRD1, ~EC10 (0.4 nM) leu-enkephalin
# T4 construct: host or cells: U2OS (PathHunter U2OS-OPRD1)
# T4 sequence (P41143 whole entry): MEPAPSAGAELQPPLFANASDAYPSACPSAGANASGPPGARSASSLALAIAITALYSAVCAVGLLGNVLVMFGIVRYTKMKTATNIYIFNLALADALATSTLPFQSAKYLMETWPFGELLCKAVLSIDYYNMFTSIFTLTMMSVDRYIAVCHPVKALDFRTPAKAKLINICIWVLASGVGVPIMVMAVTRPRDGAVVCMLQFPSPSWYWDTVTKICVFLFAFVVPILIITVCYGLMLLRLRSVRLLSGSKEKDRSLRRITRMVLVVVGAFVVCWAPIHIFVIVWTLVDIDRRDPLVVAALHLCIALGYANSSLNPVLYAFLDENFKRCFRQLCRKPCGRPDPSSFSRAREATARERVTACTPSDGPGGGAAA
# [7] = biological target: T2, human mu opioid receptors
# [8] = biological target: T2, human mu opioid receptors; experiment: cell-based
# [9] = biological target: T5, mu-opioid receptor (mouse brain membranes) (Mus musculus, UniProt P42866); experiment: [35S]GTPγS binding in mouse brain membranes; format: biochemical
# T5 construct: membranes from a physiologically relevant tissue with endogenous levels of receptor and G-protein; from tissue; host or cells: mouse whole brain minus cerebellum, membrane homogenate
# T5 sequence (P42866 whole entry): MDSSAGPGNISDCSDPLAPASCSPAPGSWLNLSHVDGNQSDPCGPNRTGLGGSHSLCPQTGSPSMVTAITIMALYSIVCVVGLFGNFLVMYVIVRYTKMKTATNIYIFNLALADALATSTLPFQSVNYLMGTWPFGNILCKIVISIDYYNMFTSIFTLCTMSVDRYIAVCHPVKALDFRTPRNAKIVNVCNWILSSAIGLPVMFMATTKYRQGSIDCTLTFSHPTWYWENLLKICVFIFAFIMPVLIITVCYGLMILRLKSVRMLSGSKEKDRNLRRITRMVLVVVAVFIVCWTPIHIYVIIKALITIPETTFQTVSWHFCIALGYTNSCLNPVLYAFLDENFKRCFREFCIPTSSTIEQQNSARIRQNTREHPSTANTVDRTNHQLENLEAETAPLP
# [10] = biological target: T3, mu-opioid receptor (C6mu membranes); experiment: DAMGO competition binding with [3H]diprenorphine in C6mu membranes; conditions: 10 uM modulator
# [11] = biological target: T3, mu-opioid receptor (C6mu membranes); format: binding
# [12] = C6mu membranes, 10 uM modulator
compound,measurement,setting,value
O=S(=O)(c1ccc(Cl)cc1)N1CCSC1c1ccc(Br)cc1 (stereo not drawn) [Analog 12],Description (PAM efficacy class / SAM),[1],Weak PAM
same,EC50,[2],6 µM
COc1ccc(C2SCCN2S(=O)(=O)c2ccc([N+](=O)[O-])cc2)cc1Br (stereo not drawn) [Analog 1],Description (PAM efficacy class / SAM),[1],Moderate PAM
same,EC50,[2],2 µM
COc1ccc(S(=O)(=O)N2CCSC2c2ccc(OC)c(Br)c2)cc1 (stereo not drawn) [Analog 3],Description (PAM efficacy class / SAM),[1],Weak PAM
same,EC50,[2],6 µM
COc1ccc(C2SCCN2S(=O)(=O)c2ccc(OC)cc2)cc1 (stereo not drawn) [Analog 15],Description (PAM efficacy class / SAM),[1],Weak PAM
same,EC50,[2],37 µM
COc1ccc(C2SCCN2S(=O)(=O)c2cccc(C)c2)cc1Br (stereo not drawn) [Analog 4],Description (PAM efficacy class / SAM),[1],Weak PAM
same,EC50,[2],9 µM
COc1ccc(S(=O)(=O)N2CCSC2c2ccc(Br)cc2)cc1 (stereo not drawn) [Analog 14],Description (PAM efficacy class / SAM),[1],Weak PAM
same,EC50,[2],7 µM
COc1ccc(C2SCCN2S(=O)(=O)c2ccc(Cl)cc2)cc1[N+](=O)[O-] (stereo not drawn) [Analog 5],Description (PAM efficacy class / SAM),[1],Moderate PAM
same,EC50,[2],4 µM
endomorphin-I [reference compound],reduction in forskolin-stimulated cAMP accumulation,"[3]; CHO-mu, 1 uM forskolin",17 fold
same,potency in cAMP assay (CHO) relative to arrestin recruitment (U2OS PathHunter),[3]; cAMP inhibition vs β-arrestin recruitment,~1000 fold
O=S(=O)(c1ccc(Cl)cc1)N1CCSC1c1cccc(Cl)c1 (stereo not drawn) [Analog 11],Description (PAM efficacy class / SAM),[1],Strong PAM
same,EC50,[2],5 µM
"C[C@@H](NC(=O)[C@@H](N)Cc1ccc(O)cc1)C(=O)NCC(=O)N(C)[C@@H](Cc1ccccc1)C(=O)NCCO [DAMGO, reference compound]",stimulation of [35S]GTPγS binding above basal activity,"[4]; C6mu membranes, 10 uM DAMGO, 5 min",250%
same,Emax,"[4]; read-out: maximal stimulation by DAMGO, control",232%
COc1ccc(C2SCCN2S(=O)(=O)c2ccc(Br)cc2)cc1OC (racemic) [Analog 8],EC50,[5],14 µM
same,Description (PAM efficacy class / SAM),[1],Weak PAM
COc1ccc(C2SCCN2S(=O)(=O)c2ccc(Br)cc2)cc1[N+](=O)[O-] (stereo not drawn) [Analog 6],Description (PAM efficacy class / SAM),[1],Moderate PAM
same,EC50,[2],2 µM
COc1cc(Br)ccc1C1SCCN1S(=O)(=O)c1ccc(Cl)cc1 (racemic) [BMS-986124],antagonist/NAM detection mode: effect on EC80 endomorphin-I response,"[1]; U2OS-OPRM1, 300 nM endomorphin-I",no significant effect; also recorded: Neither compound significantly inhibited; also recorded: no NAM/antagonist activity
same,SAM detection mode: inhibition of BMS-986122 PAM response,"[1]; U2OS-OPRM1, 12.5 uM (~EC80) BMS-986122 plus 30 nM (~EC20) endomorphin-I",able to inhibit the PAM response; also recorded: inhibited PAM responses
same,Description (PAM efficacy class / SAM),[1],SAM
same,"β-arrestin recruitment, agonist detection mode (compound alone)",[1],no activity
same,Kb,"[1]; read-out: β-arrestin SAM Detection Mode (Kb), U2OS-OPRM1, inhibition of BMS-986122 (~EC80) response with ~EC20 endomorphin-I, Kb calculated from IC50",2 µM
same,"β-arrestin recruitment, agonist detection mode",[6],no activity
same,"β-arrestin recruitment, PAM detection mode",[6],no activity
same,effect on DAMGO potency in [35S]GTPγS assay,[4]; [12],not significantly increased
same,effect on morphine Emax in [35S]GTPγS assay,[4]; [12],increased morphine Emax to a small degree
same,effect on morphine potency in [35S]GTPγS assay,[4]; [12],not significantly increased
same,effect on DAMGO-stimulated [35S]GTPγS binding potency,"[4]; C6mu membranes, 50 uM BMS-986124 alone",not affected
same,agonist activity of modulator in [35S]GTPγS binding,[4]; C6mu membranes,No significant agonist activity was detected
COc1ccc(C2SCCN2S(=O)(=O)c2ccccc2)cc1 (stereo not drawn) [Analog 10],Description (PAM efficacy class / SAM),[1],Weak PAM
same,EC50,[2],23 µM
COc1ccc(C2SCCN2S(=O)(=O)c2ccc(C)cc2)cc1Br (stereo not drawn) [Analog 2],Description (PAM efficacy class / SAM),[1],Weak PAM
same,EC50,[2],4 µM
O=[N+]([O-])c1ccc(-c2csc(=Nc3c(Cl)cccc3Cl)[nH]2)cc1 [BMS-986121],EC50,[5],1 µM and 1.7 µM
same,Emax,[5],72%
same,"β-arrestin recruitment, agonist detection mode (compound alone)",[1],Neither BMS-986121 nor BMS-986122 produced significant β-arrestin recruitment on their own
same,EC50,[7],2.2 µM
same,"β-arrestin recruitment, agonist detection mode",[6],Neither compound had any significant effect
same,"β-arrestin recruitment, PAM detection mode",[6],Neither compound had any significant effect
same,effect of modulator on maximal stimulation by DAMGO,[4]; [12],not affected
same,increase in morphine potency,[4]; [12],2.5 fold
same,leftward shift in DAMGO CRC (potency),[4]; [12],4 fold
same,agonist activity of modulator in [35S]GTPγS binding,[4]; C6mu membranes,No significant agonist activity was detected
same,leftward shift in potency of endomorphin-I,"[3]; CHO-mu, 100 uM modulator",4 fold and 4.3 fold
same,leftward shift in potency of leu-enkephalin,"[3]; CHO-mu, 100 uM modulator",4.5 fold
same,leftward shift in potency of morphine,"[3]; CHO-mu, 100 uM modulator",6.5 fold
same,Emax of agonist activity (agonist detection mode),"[3]; CHO-mu, no orthosteric agonist, 100% = 10 nM endomorphin-I",35 (6-63) %
same,EC50,"[3]; read-out: EC50 of agonist activity (agonist detection mode), CHO-mu, no orthosteric agonist",14 µM
COc1ccc(C2SCCN2S(=O)(=O)c2ccc(Cl)cc2)cc1Br (stereo not drawn) [BMS-986122],Emax,[5],79%
same,EC50,[8],8.9 µM
same,Description (PAM efficacy class / SAM),[1],Full PAM (ref)
same,"β-arrestin recruitment, agonist detection mode (compound alone)",[1],Neither BMS-986121 nor BMS-986122 produced significant β-arrestin recruitment on their own
same,EC50,[2],3 µM and 4.9 µM
same,agonist activity of modulator,[9],No agonist activity was observed
same,leftward shift in DAMGO potency,[9]; 10 uM modulator,4.5 fold
same,effect on basal [35S]GTPγS binding,"[9]; 10 uM modulator, basal 4.8±0.4 fmol bound/mg protein",not affected
same,increase in the affinity of DAMGO,[10],6 fold
same,"β-arrestin recruitment, agonist detection mode",[6],Neither compound had any significant effect
same,"β-arrestin recruitment, PAM detection mode",[6],Neither compound had any significant effect
same,effect of modulator on maximal stimulation by DAMGO,[4]; [12],not affected
same,increase in morphine potency,[4]; [12],3 fold
same,leftward shift in DAMGO CRC (potency),[4]; [12],8 fold and 7 fold
same,agonist activity of modulator in [35S]GTPγS binding,[4]; C6mu membranes,No significant agonist activity was detected
same,effect on [3H]diprenorphine binding affinity,[11],no significant effect; also recorded: did not affect; also recorded: had no effect
same,EC50,"[3]; EC50 of agonist activity (agonist detection mode), CHO-mu, no orthosteric agonist",41 µM
same,Emax,[3]; read-out: Emax of agonist activity (agonist detection mode),60%
COc1ccc(C2SCCN2S(=O)(=O)c2ccc(Br)cc2)cc1 (stereo not drawn) [Analog 9],Description (PAM efficacy class / SAM),[1],Moderate PAM
same,EC50,[2],7 µM

# — patent publication US9784740B2 (priority 2013, dated 2017)
